Results: patent US11008304B2, “Tetrazole containing apoptosis signal-regulating kinase 1 inhibitors and methods of use thereof” (ENANTA PHARMACEUTICALS, INC., priority 2018, dated 2021)

Molecular target: ASK1 kinase (Homo sapiens (Human), UniProt Q99683)
Test: HTRF KinEASE assay of ASK1 kinase activity inhibition
Assay type: biochemical
Settings: 5 nM ASK1, 1 uM STK3 peptide substrate, 100 uM ATP, TR-FRET readout
Protocol: The ability (IC50) of compounds to inhibit ASK1 kinase activity was determined by HTRF® KinEASE™ Assay System. ASK1 was purchased from Thermofisher (Catalogue #PV4011), ATP was purchased from Sigma (Catalogue #A7699), HTRF® KinEASE™ Assay System was obtained from Cisbio (Bedford, Mass.). ½ Area plate was purchased from Perkin Elmer (Catalogue ##6005560). HTRF® KinEASE™-STK is a generic method for measuring serine/threonine kinase activities using a time-resolved fluorescence resonance energy transfer (TR-FRET) immunoassay. The IC50 value for each compound was determined in the presence of compound (various concentration from 0 to 10 μM) and a fixed amount of ATP and peptide substrates. The test compound, 1 uM STK3 peptide substrate, and 5 nM of ASK1 kinase are incubated with kinase reaction buffer containing 50 mM HEPES pH 7.5, 0.01% BRIJ-35, 10 mM MgCl2, and 1 mM EGTA for 30 minutes. 100 uM ATP is added to start kinase reaction and incubated for 3 hours. The STK3-antibody labeled with Eu^3+-Cryptate and 125 nM streptavidin-XL665 are mixed in a single addition with stop reagents provided by the Cisbio kit used to stop the kinase reaction. Fluorescence is detected using an Envision Multilabeled 2014 reader from PerkinElmer. The Fluorescence is measured at 615 nm (Cryptate) and 665 nm (XL665) and a ratio of 665 nm/615 nm is calculated for each well. The resulting TR-FRET is proportional to the phosphorylation level. Staurosporine was used as the positive control. IC50 was determined by XLfit 5.3. By using above method, the inhibition of ASK1 was tested for the compound of formula (I). IC50 ranges are as follows: A<1 nM; 1 nM<B<10 nM; 10 nM<C<100 nM; 100 nM<D<1 μM; E>1 μM.

ASK1 kinase, sequence (Q99683 whole entry): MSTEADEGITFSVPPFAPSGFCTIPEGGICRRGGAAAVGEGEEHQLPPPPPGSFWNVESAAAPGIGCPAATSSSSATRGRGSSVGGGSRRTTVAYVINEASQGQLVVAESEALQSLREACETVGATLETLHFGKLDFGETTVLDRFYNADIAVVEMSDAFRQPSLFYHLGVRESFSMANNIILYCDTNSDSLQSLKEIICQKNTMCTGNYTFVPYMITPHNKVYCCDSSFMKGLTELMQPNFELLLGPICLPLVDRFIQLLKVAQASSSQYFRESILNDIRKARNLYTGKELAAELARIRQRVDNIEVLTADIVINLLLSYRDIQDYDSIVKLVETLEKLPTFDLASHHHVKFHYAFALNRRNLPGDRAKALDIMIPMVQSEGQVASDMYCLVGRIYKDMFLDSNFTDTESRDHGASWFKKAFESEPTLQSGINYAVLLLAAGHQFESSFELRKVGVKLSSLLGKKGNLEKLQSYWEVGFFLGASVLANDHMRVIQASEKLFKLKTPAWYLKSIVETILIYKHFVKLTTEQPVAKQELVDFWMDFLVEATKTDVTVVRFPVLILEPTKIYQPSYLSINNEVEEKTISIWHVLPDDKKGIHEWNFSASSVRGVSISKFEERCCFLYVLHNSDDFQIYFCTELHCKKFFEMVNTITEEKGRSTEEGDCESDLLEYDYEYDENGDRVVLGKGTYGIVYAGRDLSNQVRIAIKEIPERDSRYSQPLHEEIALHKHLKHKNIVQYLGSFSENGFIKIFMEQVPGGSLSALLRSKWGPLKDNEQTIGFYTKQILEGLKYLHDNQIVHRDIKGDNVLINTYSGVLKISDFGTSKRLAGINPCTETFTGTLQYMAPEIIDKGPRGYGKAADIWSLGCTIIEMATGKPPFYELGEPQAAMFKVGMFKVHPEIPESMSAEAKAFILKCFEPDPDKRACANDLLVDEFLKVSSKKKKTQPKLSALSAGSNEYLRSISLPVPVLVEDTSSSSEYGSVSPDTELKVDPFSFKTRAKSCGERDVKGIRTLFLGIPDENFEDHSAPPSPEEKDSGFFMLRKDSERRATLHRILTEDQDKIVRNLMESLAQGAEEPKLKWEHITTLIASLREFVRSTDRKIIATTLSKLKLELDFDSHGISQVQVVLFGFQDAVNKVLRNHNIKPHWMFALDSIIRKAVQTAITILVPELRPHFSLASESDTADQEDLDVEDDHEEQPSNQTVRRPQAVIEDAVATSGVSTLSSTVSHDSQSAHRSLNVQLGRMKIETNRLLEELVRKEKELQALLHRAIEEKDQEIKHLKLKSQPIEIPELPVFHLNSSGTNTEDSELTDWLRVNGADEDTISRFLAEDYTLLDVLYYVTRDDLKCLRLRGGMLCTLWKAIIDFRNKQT

SMILES | IC50
Cc1cc(F)c(C(=O)Nc2cccc(-c3nnnn3[C@H]3CCC[C@@H]3O)n2)cc1-c1cnn(C2CC2)c1 [Example 83] | 1 to 10 nM
Cc1cnc(C(=O)Nc2cccc(-c3nnnn3C(C)C)n2)cc1-c1cnn(C(C)(C)C)c1 [Example 20] | 1 to 10 nM
Cc1cnc(C(=O)Nc2cccc(-c3nnnn3[C@H](C)CO)n2)cc1-c1cnn(C2CC2)c1 [Example 13] | 1 to 10 nM
Cc1cc(F)c(C(=O)Nc2cccc(-c3nnnn3[C@H](C)CO)n2)cc1-c1ccc(C2CC2)s1 [Example 70] | 1 to 10 nM
CC(C)n1nnnc1-c1nc(NC(=O)c2cc(-c3cnn(C4CC4)c3)c(F)cn2)cs1 [Example 8] | 10 to 100 nM
Cc1cnc(C(=O)Nc2cccc(-n3nnnc3C(C)C)n2)cc1-c1cnn(C2CC2)c1 [Example 17] | 10 to 100 nM
Cc1cc(F)c(C(=O)Nc2cccc(-c3nnnn3C(C)C)n2)cc1-c1ccn(C(C)C)n1 [Example 58] | 10 to 100 nM
Cc1cc(F)c(C(=O)Nc2cccc(-c3nnnn3[C@H]3CCOC3)n2)cc1-c1cnn(C2CC2)c1 [Example 81] | 1 to 10 nM
COc1cc(C)c(-c2cnn(C3CC3)c2)cc1C(=O)Nc1cccc(-n2nnnc2C(C)C)n1 [Example 76] | < 1 nM
CC(C)n1nnnc1-c1nc(NC(=O)c2cc(-c3cnn(C4CC4)c3)c(N3CCCC3)cn2)cs1 [Example 9] | 1 to 10 nM
Cc1cnc(C(=O)Nc2cccc(-c3nnnn3[C@H](C)CO)n2)cc1-c1ccc(C2CC2)s1 [Example 45] | 1 to 10 nM
CC(C)n1nnnc1-c1nc(NC(=O)c2cc(-c3cnn(C4CC4)c3)c(N3CCCCC3)cn2)cs1 [Example 11] | 10 to 100 nM
Cc1cc(F)c(C(=O)Nc2cccc(-c3nnnn3C(C)C)n2)cc1-c1cnn(C2CC2)c1 [Example 46] | 1 to 10 nM
Cc1cnc(C(=O)Nc2cccc(-c3nnnn3C(C)C)n2)cc1-c1cccnc1 [Example 37] | 1 to 10 nM
COc1cc(C)c(-c2cnn(C3CC3)c2)cc1C(=O)Nc1cccc(-c2nnnn2C(C)C)n1 [Example 75] | < 1 nM
Cc1cnc(C(=O)Nc2cccc(-c3nnnn3C(C)C)n2)cc1-c1cnn(C(C)C)c1 [Example 26] | 1 to 10 nM
Cc1cnc(C(=O)Nc2cccc(-c3nnnn3C(C)C)n2)cc1-c1ccccn1 [Example 36] | 10 to 100 nM
Cc1cc(F)c(C(=O)Nc2cccc(-c3nnnn3[C@H](C)CO)n2)cc1-c1cn(C(C)C)cn1 [Example 63] | 10 to 100 nM
Cc1cc(F)c(C(=O)Nc2cccc(-c3nnnn3C(C)C)n2)cc1-c1ccncc1 [Example 66] | 10 to 100 nM
COc1cc(C)c(-c2ccn(C(C)C)n2)cc1C(=O)Nc1cccc(-c2nnnn2[C@H](C)CO)n1 [Example 80] | < 1 nM
Cc1cnc(C(=O)Nc2cccc(-c3nnnn3[C@H](C)CO)n2)cc1-c1cccnc1 [Example 41] | 1 to 10 nM
Cc1nc(-c2cc(C(=O)Nc3cccc(-c4nnnn4C(C)C)n3)ncc2C)cs1 [Example 40] | 10 to 100 nM

SMILES | IC50
Cc1cnc(C(=O)Nc2cccc(-c3nnnn3[C@H](C)CO)n2)cc1-c1cnn(C(C)C)c1 [Example 28] | 1 to 10 nM
Cc1cc(F)c(C(=O)Nc2cccc(-c3nnnn3C(C)C)n2)cc1-c1cn(C(C)C)cn1 [Example 61] | 10 to 100 nM
Cc1cnc(C(=O)Nc2cccc(-n3nnnc3C(C)C)n2)cc1-c1cnn(C(C)C)c1 [Example 27] | 1 to 10 nM
Cc1cc(F)c(C(=O)Nc2cccc(-n3nnnc3C(C)C)n2)cc1-c1cnn(C(C)(C)C)c1 [Example 53] | 1 to 10 nM
Cc1cc(F)c(C(=O)Nc2cccc(-n3nnnc3C(C)C)n2)cc1-c1cn(C(C)C)cn1 [Example 62] | > 1000 nM
Cc1cc(F)c(C(=O)Nc2cccc(-c3nnnn3C(C)C)n2)cc1-c1cnn(C(C)(C)C)c1 [Example 52] | 1 to 10 nM
Cc1cnc(C(=O)Nc2cccc(-c3nnnn3[C@H](C)CO)n2)cc1-c1cnc(C2CC2)s1 [Example 43] | 1 to 10 nM
CC(C)n1nnnc1-c1cccc(NC(=O)c2cc(-c3cnn(C4CC4)c3)c(C(F)F)cn2)n1 [Example 18] | 1 to 10 nM
Cc1cnc(C(=O)Nc2cccc(-c3nnnn3C(C)C)n2)cc1-c1ccncc1 [Example 38] | 10 to 100 nM
CC(C)n1nnnc1-c1cccc(NC(=O)c2cc(-c3cnn(C4CC4)c3)c(N3CCCCC3)cn2)n1 [Example 5] | 10 to 100 nM
COc1cc(C)c(-c2cnn(C)c2)cc1C(=O)Nc1cccc(-c2nnnn2C(C)C)n1 [Example 73] | 1 to 10 nM
Cc1cc(F)c(C(=O)Nc2cccc(-c3nnnn3[C@@H]3CCOC3)n2)cc1-c1cnn(C2CC2)c1 [Example 82] | 1 to 10 nM
CC(C)n1nnnc1-c1nc(NC(=O)c2cc(-c3cnn(C4CC4)c3)c(C(F)F)cn2)cs1 [Example 19] | 1 to 10 nM
Cc1cc(F)c(C(=O)Nc2cccc(-c3nnnn3C(C)C)n2)cc1-c1ccc(C2CC2)s1 [Example 69] | 10 to 100 nM
Cc1nc(-c2cc(C(=O)Nc3cccc(-c4nnnn4C(C)C)n3)c(F)cc2C)cs1 [Example 68] | 100 to 1000 nM
CC(C)n1nnnc1-c1nc(NC(=O)c2cc(-c3cnn(C4CC4)c3)c(N3CCN(C)CC3)cn2)cs1 [Example 12] | 1 to 10 nM
Cc1cc(F)c(C(=O)Nc2cccc(-c3nnnn3C(C)C)n2)cc1-c1cnn(C(C)C)c1 [Example 49] | 1 to 10 nM
Cc1cc(F)c(C(=O)Nc2cccc(-c3nnnn3C(C)C)n2)cc1-c1cccnc1 [Example 65] | 1 to 10 nM
COc1cc(C)c(-c2ccn(C(C)C)n2)cc1C(=O)Nc1cccc(-c2nnnn2C(C)C)n1 [Example 78] | 1 to 10 nM
Cc1cnc(C(=O)Nc2cccc(-n3nnnc3C(C)C)n2)cc1-c1cnn(C(F)(F)F)c1 [Example 31] | > 1000 nM
Cc1cc(F)c(C(=O)Nc2cccc(-c3nnnn3[C@@H]3CCC[C@@H]3O)n2)cc1-c1cnn(C2CC2)c1 [Example 84] | 1 to 10 nM
Cc1cnc(C(=O)Nc2cccc(-c3nnnn3C(C)C)n2)cc1-c1cnc(C2CC2)s1 [Example 42] | 1 to 10 nM

SMILES | IC50
Cc1cc(F)c(C(=O)Nc2cccc(-n3nnnc3C(C)C)n2)cc1-c1ccn(C(C)C)n1 [Example 59] | > 1000 nM
Cc1cnc(C(=O)Nc2cccc(-n3nnnc3C(C)C)n2)cc1-c1ccn(C(C)C)n1 [Example 34] | > 1000 nM
C[C@H](CO)n1nnnc1-c1cccc(NC(=O)c2cc(-c3cnn(C4CC4)c3)c(C(F)F)cn2)n1 [Example 29] | 1 to 10 nM
Cc1cnc(C(=O)Nc2cccc(-n3nnnc3C(C)C)n2)cc1-c1cn(C(C)C)cn1 [Example 24] | > 1000 nM
Cc1cnc(C(=O)Nc2cccc(-c3nnnn3C(C)C)n2)cc1-c1cnn(C2CC2)c1 [Example 2] | 10 to 100 nM
CC(C)n1nnnc1-c1cccc(NC(=O)c2cc(-c3cnn(C4CC4)c3)c(N3CCN(C)CC3)cn2)n1 [Example 7] | 1 to 10 nM
Cc1cnc(C(=O)Nc2cccc(-c3nnnn3[C@H](C)CO)n2)cc1-c1cn(C(C)C)cn1 [Example 25] | 1 to 10 nM
Cc1cnc(C(=O)Nc2cccc(-c3nnnn3[C@H](C)CO)n2)cc1-c1cnn(C(C)(C)C)c1 [Example 22] | 1 to 10 nM
Cc1cnc(C(=O)Nc2cccc(-c3nnnn3[C@H](C)CO)n2)cc1-c1cnn(C(F)(F)F)c1 [Example 32] | 1 to 10 nM
COc1cc(C)c(-c2cnn(C3CC3)c2)cc1C(=O)Nc1cccc(-c2nnnn2[C@H](C)CO)n1 [Example 77, 5-(1-cyclopropyl-1H-pyrazol-4-yl)-N-(6-[1-[(2R)-1-hydroxypropan-2-yl]-1H-1,2,3,4-tetrazol-5-yl]pyridin-2-yl)-2-methoxy-4-methylbenzamide] | < 1 nM
CC(C)n1nnnc1-c1cccc(NC(=O)c2cc(-c3cnn(C4CC4)c3)c(C(F)(F)F)cn2)n1 [Example 14] | 10 to 100 nM
Cc1cc(F)c(C(=O)Nc2cccc(-c3nnnn3[C@H](C)CO)n2)cc1-c1cnn(C(C)(C)C)c1 [Example 54] | 1 to 10 nM
Cc1cc(F)c(C(=O)Nc2cccc(-n3nnnc3C(C)C)n2)cc1-c1cnn(C(C)C)c1 [Example 51] | 1 to 10 nM
CC(C)n1nnnc1-c1cccc(NC(=O)c2cc(-c3cnn(C4CC4)c3)ccn2)n1 [Example 1] | 10 to 100 nM
Cc1cnc(C(=O)Nc2cccc(-c3nnnn3C(C)C)n2)cc1-c1ccc(C2CC2)s1 [Example 44] | 10 to 100 nM
Cc1cc(F)c(C(=O)Nc2cccc(-c3nnnn3C(C)C)n2)cc1-c1cc(C2CC2)on1 [Example 71] | 10 to 100 nM
Cc1cc(F)c(C(=O)Nc2cccc(-c3nnnn3[C@H](C)CO)n2)cc1-c1ccn(C(C)C)n1 [Example 60] | 10 to 100 nM
Cc1cnc(C(=O)Nc2cccc(-n3nnnc3C(C)C)n2)cc1-c1cnn(C(C)(C)C)c1 [Example 21] | 10 to 100 nM
CC(C)n1nnnc1-c1cccc(NC(=O)c2cc(-c3cnn(C4CC4)c3)c(N3CCOCC3)cn2)n1 [Example 6] | 1 to 10 nM
Cc1cc(F)c(C(=O)Nc2cccc(-c3nnnn3C(C)C)n2)cc1-c1cnn(C(F)(F)F)c1 [Example 55] | 10 to 100 nM
Cc1ncc(-c2cc(C(=O)Nc3cccc(-c4nnnn4C(C)C)n3)c(F)cc2C)s1 [Example 67] | 10 to 100 nM
